According to patent US10757944B2, “Ozone treatment for elimination of pathogens” (priority 2016, dated 2020):

What was measured:
[1] = Pesticide residue on hemp flower after ozone treatment (AOAC official method 2007.01); assay type: physicochemical; settings: for Sample 1: residue on pesticide treated hemp exposed to ozone / Sample 2: residue on pesticide treated hemp exposed to ozone / Sample 3: residue on pesticide treated hemp exposed to ozone: 200 ppm ozone for 20 minutes; for average reduction of pesticide across the three samples tested: hemp, 20 minutes at 200 ppm ozone; for Control: residue on pesticide treated hemp not exposed to ozone: no ozone exposure
Protocol: The ability of ozone to reduce pesticide residue using an embodiment of a disclosed pathogen reduction device was evaluated. In this series of experiments, Myclobutanil and Bifenazate were purchased in liquid formulations (Myclobutanil at 19.7% from Dow AgroSciences as Eagle® 20EW and Bifenazate at 22.6% from Chemtura Corporation as Floramite® SC). The pesticides were sprayed on homogenized hemp flower and air dried. Dried hemp flower with pesticide was then exposed to treatment with 200 ppm of ozone for 20 minutes. Non pesticide treated hemp, pesticide treated hemp, and pesticide treated hemp that was exposed to ozone were analyzed by spectrometry using AOAC official method 2007.01. The results are disclosed below in Table 3 were Matrix Blank is non pesticide treated hemp (negative control), Control is pesticide treated hemp that was not exposed to ozone, and Sample 1, Sample 2, and Sample 3 are three samples of pesticide treated hemp that was exposed to ozone at 200 ppm for 20 minutes.

[2] = Cannabinoid and terpene content of cannabis flower before and after ozone exposure; assay type: physicochemical; settings: for % Change (decrease): 60 minute exposure to 200 ppm of ozone vs before; for % After Ozone Exposure (60 minutes): content of cannabis flower after 60 minute exposure to 200 ppm of ozone; for % Before Ozone Exposure (0 minutes): content of cannabis flower before exposure
Protocol: Cannabinoid and terpene content of cannabis flower was measured before exposure to 200 ppm of ozone in an embodiment of a disclosed pathogen reduction device and after a 60 minute exposure. The results are disclosed in Table 7 by the different cannabinoids and terpenes measured.

| SMILES | Sample 1: residue on pesticide treated hemp exposed to ozone [1] [mg/kg] | Sample 2: residue on pesticide treated hemp exposed to ozone [1] [mg/kg] | Sample 3: residue on pesticide treated hemp exposed to ozone [1] [mg/kg] | average reduction of pesticide across the three samples tested [1] [ppm] | Control: residue on pesticide treated hemp not exposed to ozone [1] [mg/kg] | % Change (decrease) [2] [%] | % After Ozone Exposure (60 minutes) [2] [%] | % Before Ozone Exposure (0 minutes) [2] [%] |
| --- | --- | --- | --- | --- | --- | --- | --- | --- |
| COc1ccc(-c2ccccc2)cc1NNC(=O)OC(C)C [Bifenazate] | 0.28 | 0.21 | 0.22 | 0.1 | 0.34 | – | – | – |
| CCCCCc1cc2c(c(O)c1C(=O)O)C=CC(C)(CCC=C(C)C)O2 (stereo not shown) [CBCA] | – | – | – | – | – | 0.28 | 0.102 | 0.105 |
| C=C(C)[C@@H]1CCC(C)=C[C@H]1c1c(O)cc(CCCCC)c(C(=O)O)c1O [CBDA] | – | – | – | – | – | 5.4 | 0.035 | 0.037 |
| CCCCCc1cc(O)c(C/C=C(\C)CCC=C(C)C)c(O)c1C(=O)O [CBGA] | – | – | – | – | – | 13.4 | 0.552 | 0.638 |
| CCCCCc1cc2c(c(O)c1C(=O)O)-c1cc(C)ccc1C(C)(C)O2 [CBNA] | – | – | – | – | – | 0.04 | 0.0458 | 0.046 |
| CCCCC(C#N)(Cn1cncn1)c1ccc(Cl)cc1 (stereo not shown) [Myclobutanil] | 0.39 | 0.28 | 0.28 | 0.18 | 0.5 | – | – | – |
| CCCCCc1cc2c(c(O)c1C(=O)O)[C@@H]1C=C(C)CC[C@H]1C(C)(C)O2 [THCA] | – | – | – | – | – | 7.1 | 15.7 | 16.9 |
| CCCc1cc2c(c(O)c1C(=O)O)[C@@H]1C=C(C)CC[C@H]1C(C)(C)O2 [THCVA] | – | – | – | – | – | 1.2 | 0.076 | 0.077 |
| CCCCCc1cc(O)c2c(c1)OC(C)(C)[C@@H]1CCC(C)=C[C@@H]21 [THC] | – | – | – | – | – | 9.2 | 0.680 | 0.749 |
